Data as given in article PMC11576293, “New series of 4,6-diaryl pyrimidines: facile synthesis and antiproliferative activity as dual EGFR/VEGFR-2 inhibitors” (Frontiers in Chemistry, 2024).

Columns and labels:
Format in all cases: cell-based
[1] = test system: four cancer cell lines (A-549, MCF-7, Panc-1, HT-29); test: Antiproliferative assay, average over four cancer cell lines; conditions: Homo sapiens; average of the four cancer cell lines; read-out: Average IC50 (GI50)
Excerpt: Table 2 presents the four cancer cell lines’ median inhibitory concentration (IC50) and GI50 (average IC50) values.
The IC50 values were derived from dose-response tests. The reported data are derived from at least two independent studies, each comprising three replicates per concentration. See Supplementary Material A1 for more details.

HCT-116 = test: NCI-60 single-dose screen; conditions: Homo sapiens, single dose 10 µM, '-' = no inhibition, read-out: % Growth Inhibition
Procedure: (§1) The National Cancer Institute’s Developmental Therapeutic Program (www.dtp.nci.nih.gov) has tested compounds 9–29 (except compounds 21 and 22) against 60 cancer cell lines from nine types (leukemia, lung, colon, CNS, melanoma, ovarian, renal, prostate, and breast cancer) at a single dose (10 μM) ([El-Sherief et al., 2018]). […] The most sensitive cells included leukemia (SR, K-562, and MOLT-4), lung (NCI-H522, […], and EKVX), breast (MCF-7 and T-47D), colon (HCT-15 and HT-29), and ovarian (NCI/ADR-RES).
(§2) The National Cancer Institute’s Developmental Therapeutic Program (www.dtp.nci.nih.gov) evaluated compounds 9–29 (excluding 21 and 22) against 60 cancer cell lines from nine categories (leukemia, lung, colon, CNS, melanoma, ovarian, renal, prostate, and breast cancer) at a single dose (10 μM) ([El-Sherief et al., 2018]). See Supplementary Material A1 for more details.

MDA-MB-468 = test: NCI-60 single-dose screen; conditions: Homo sapiens, single dose 10 µM, '-' = no inhibition, read-out: % Growth Inhibition
Procedure: as §1, §2

786-0 = test: NCI-60 single-dose screen; conditions: Homo sapiens, single dose 10 µM, '-' = no inhibition, read-out: % Growth Inhibition
Procedure: as §1, §2

OVCAR-3 = test: NCI-60 single-dose screen; conditions: Homo sapiens, single dose 10 µM, '-' = no inhibition, read-out: % Growth Inhibition
Procedure: as §1, §2

TK-10 = test: NCI-60 single-dose screen; conditions: Homo sapiens, single dose 10 µM, '-' = no inhibition, read-out: % Growth Inhibition
Procedure: as §1, §2

OVCAR-8 = test: NCI-60 single-dose screen; conditions: Homo sapiens, single dose 10 µM, '-' = no inhibition, read-out: % Growth Inhibition
Procedure: as §1, §2

SF-268 = test: NCI-60 single-dose screen; conditions: Homo sapiens, single dose 10 µM, '-' = no inhibition, read-out: % Growth Inhibition
Procedure: as §1, §2

OVCAR-5 = test: NCI-60 single-dose screen; conditions: Homo sapiens, single dose 10 µM, '-' = no inhibition, read-out: % Growth Inhibition
Procedure: as §1, §2

HL-60(TB) = test: NCI-60 single-dose screen; conditions: Homo sapiens, single dose 10 µM, '-' = no inhibition, read-out: % Growth Inhibition
Procedure: as §1, §2

ACHN 1 = test: NCI-60 single-dose screen; conditions: Homo sapiens, single dose 10 µM, '-' = no inhibition, read-out: % Growth Inhibition
Procedure: as §1, §2

SR = test: NCI-60 single-dose screen; conditions: Homo sapiens, single dose 10 µM, '-' = no inhibition, read-out: % Growth Inhibition
Procedure: as §1, §2

MDA-MB231/ATCC = test: NCI-60 single-dose screen; conditions: Homo sapiens, MDA-MB-231, single dose 10 µM, '-' = no inhibition, read-out: % Growth Inhibition
Procedure: as §1, §2

U251 = test: NCI-60 single-dose screen; conditions: Homo sapiens, U-251, single dose 10 µM, '-' = no inhibition, read-out: % Growth Inhibition
Procedure: as §1, §2

A549/ATCC = test: NCI-60 single-dose screen; conditions: Homo sapiens, single dose 10 µM, '-' = no inhibition, read-out: % Growth Inhibition
Procedure: as §1, §2

NCI-H460 = test: NCI-60 single-dose screen; conditions: Homo sapiens, single dose 10 µM, '-' = no inhibition, read-out: % Growth Inhibition
Procedure: as §1, §2

HOP-92 = test: NCI-60 single-dose screen; conditions: Homo sapiens, single dose 10 µM, '-' = no inhibition, read-out: % Growth Inhibition
Procedure: as §1, §2

IGROV1 = test: NCI-60 single-dose screen; conditions: Homo sapiens, IGROV-1, single dose 10 µM, '-' = no inhibition, read-out: % Growth Inhibition
Procedure: as §1, §2

NCI-H322M = test: NCI-60 single-dose screen; conditions: Homo sapiens, single dose 10 µM, '-' = no inhibition, read-out: % Growth Inhibition
Procedure: as §1, §2

NCI-H522 = test: NCI-60 single-dose screen; conditions: Homo sapiens, single dose 10 µM, '-' = no inhibition, read-out: % Growth Inhibition
Procedure: as §1, §2

PC-3 = test: NCI-60 single-dose screen; conditions: Homo sapiens, single dose 10 µM, '-' = no inhibition, read-out: % Growth Inhibition
Procedure: as §1, §2

SK-MEL-5 = test: NCI-60 single-dose screen; conditions: Homo sapiens, single dose 10 µM, '-' = no inhibition, read-out: % Growth Inhibition
Procedure: as §1, §2

HT29 = test: NCI-60 single-dose screen; conditions: Homo sapiens, HT-29, single dose 10 µM, '-' = no inhibition, read-out: % Growth Inhibition
Procedure: as §1, §2

SK-MEL-28 = test: NCI-60 single-dose screen; conditions: Homo sapiens, single dose 10 µM, '-' = no inhibition, read-out: % Growth Inhibition
Procedure: as §1, §2

UACC-257 = test: NCI-60 single-dose screen; conditions: Homo sapiens, single dose 10 µM, '-' = no inhibition, read-out: % Growth Inhibition
Procedure: as §1, §2

NCI/ADR-RES = test: NCI-60 single-dose screen; conditions: Homo sapiens, single dose 10 µM, '-' = no inhibition, read-out: % Growth Inhibition
Procedure: as §1, §2

OVCAR-4 = test: NCI-60 single-dose screen; conditions: Homo sapiens, single dose 10 µM, '-' = no inhibition, read-out: % Growth Inhibition
Procedure: as §1, §2

SN12C = test: NCI-60 single-dose screen; conditions: Homo sapiens, single dose 10 µM, '-' = no inhibition, read-out: % Growth Inhibition
Procedure: as §1, §2

NCI-H23 = test: NCI-60 single-dose screen; conditions: Homo sapiens, single dose 10 µM, '-' = no inhibition, read-out: % Growth Inhibition
Procedure: as §1, §2

UO-31 = test: NCI-60 single-dose screen; conditions: Homo sapiens, single dose 10 µM, '-' = no inhibition, read-out: % Growth Inhibition
Procedure: as §1, §2

DU-145 = test: NCI-60 single-dose screen; conditions: Homo sapiens, single dose 10 µM, '-' = no inhibition, read-out: % Growth Inhibition
Procedure: as §1, §2

SK-MEL-2 = test: NCI-60 single-dose screen; conditions: Homo sapiens, single dose 10 µM, '-' = no inhibition, read-out: % Growth Inhibition
Procedure: as §1, §2

HS 578T = test: NCI-60 single-dose screen; conditions: Homo sapiens, single dose 10 µM, '-' = no inhibition, read-out: % Growth Inhibition
Procedure: as §1, §2

BT-549 = test: NCI-60 single-dose screen; conditions: Homo sapiens, single dose 10 µM, '-' = no inhibition, read-out: % Growth Inhibition
Procedure: as §1, §2

SK-OV-3 = test: NCI-60 single-dose screen; conditions: Homo sapiens, single dose 10 µM, '-' = no inhibition, read-out: % Growth Inhibition
Procedure: as §1, §2

SF-539 = test: NCI-60 single-dose screen; conditions: Homo sapiens, single dose 10 µM, '-' = no inhibition, read-out: % Growth Inhibition
Procedure: as §1, §2

HCC-2998 = test: NCI-60 single-dose screen; conditions: Homo sapiens, single dose 10 µM, '-' = no inhibition, read-out: % Growth Inhibition
Procedure: as §1, §2

K-562 = test: NCI-60 single-dose screen; conditions: Homo sapiens, K562, single dose 10 µM, '-' = no inhibition, read-out: % Growth Inhibition
Procedure: as §1, §2

UACC-62 = test: NCI-60 single-dose screen; conditions: Homo sapiens, single dose 10 µM, '-' = no inhibition, read-out: % Growth Inhibition
Procedure: as §1, §2

CAKI-1 = test: NCI-60 single-dose screen; conditions: Homo sapiens, single dose 10 µM, '-' = no inhibition, read-out: % Growth Inhibition
Procedure: as §1, §2

RPMI-8226 = test: NCI-60 single-dose screen; conditions: Homo sapiens, single dose 10 µM, '-' = no inhibition, read-out: % Growth Inhibition
Procedure: as §1, §2

RXF 393 = test: NCI-60 single-dose screen; conditions: Homo sapiens, single dose 10 µM, '-' = no inhibition, read-out: % Growth Inhibition
Procedure: as §1, §2

COLO 205 = test: NCI-60 single-dose screen; conditions: Homo sapiens, single dose 10 µM, '-' = no inhibition, read-out: % Growth Inhibition
Procedure: as §1, §2

SNB-19 = test: NCI-60 single-dose screen; conditions: Homo sapiens, single dose 10 µM, '-' = no inhibition, read-out: % Growth Inhibition
Procedure: as §1, §2

COc1ccc(-c2cc(-c3cccc(OC)c3)nc(SC(C)C)n2)cc1 [Compound 19, 2-(Isopropylthio)-6-(3-methoxyphenyl)-4-(4-methoxyphenyl)pyrimidine]
IC50 [1]: 30 nM | inhibition at 10 µM (HCT-116): 23.8% | inhibition at 10 µM (MDA-MB-468): 20.2% | inhibition at 10 µM (786-0): 4.09% | inhibition at 10 µM (OVCAR-3): < 0% | inhibition at 10 µM (TK-10): < 0% | inhibition at 10 µM (OVCAR-8): 10.7% | inhibition at 10 µM (SF-268): 9.81% | inhibition at 10 µM (OVCAR-5): 0.61% | inhibition at 10 µM (HL-60(TB)): 22.6% | inhibition at 10 µM (ACHN 1): < 0% | inhibition at 10 µM (SR): 27.6% | inhibition at 10 µM (MDA-MB231/ATCC): 17.3% | inhibition at 10 µM (U251): 10.2% | inhibition at 10 µM (A549/ATCC): 15.9% | inhibition at 10 µM (NCI-H460): 2.13% | inhibition at 10 µM (HOP-92): < 0% | inhibition at 10 µM (IGROV1): < 0% | inhibition at 10 µM (NCI-H322M): 4.92% | inhibition at 10 µM (NCI-H522): 21% | inhibition at 10 µM (PC-3): 17.2% | inhibition at 10 µM (SK-MEL-5): 7.31% | inhibition at 10 µM (HT29): 32.5% | inhibition at 10 µM (SK-MEL-28): < 0% | inhibition at 10 µM (UACC-257): < 0% | inhibition at 10 µM (NCI/ADR-RES): 9.86% | inhibition at 10 µM (OVCAR-4): 4.28% | inhibition at 10 µM (SN12C): 18.5% | inhibition at 10 µM (NCI-H23): 8.76% | inhibition at 10 µM (UO-31): 23.6% | inhibition at 10 µM (DU-145): 4.58% | inhibition at 10 µM (SK-MEL-2): 7.18% | inhibition at 10 µM (HS 578T): 4.95% | inhibition at 10 µM (BT-549): 6.85% | inhibition at 10 µM (SK-OV-3): < 0% | inhibition at 10 µM (SF-539): 0.24% | inhibition at 10 µM (HCC-2998): < 0% | inhibition at 10 µM (K-562): 29.5% | inhibition at 10 µM (UACC-62): 25.5% | inhibition at 10 µM (CAKI-1): 24.1% | inhibition at 10 µM (RPMI-8226): 10.1% | inhibition at 10 µM (RXF 393): 18.9% | inhibition at 10 µM (COLO 205): 0.02% | inhibition at 10 µM (SNB-19): 7.53%
